This is an account of results in US10669268B2, “Bicyclic derivatives” (Hoffmann-La Roche Inc., priority 2012, dated 2020).

In the experiment the target is ATX (human His-tagged) (Homo sapiens (Human), UniProt Q13822). The experiment in a line: Human ATX enzyme inhibition assay (fluorescence quenching, MR121 substrate). It counts as biochemical. The note with it: 30 nM ATX, 1 μM MR121 substrate, 30° C., pH 8.0. The method in brief:
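Fluorescence-quenching assay using MR121 substrate at 1 μM final, incubated 15 min at 30 °C. Buffer was 50 mM Tris-HCl pH 8.0 with 140 mM NaCl, 5 mM KCl, 1 mM CaCl2, 1 mM MgCl2 and 0.01% Triton X-100.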
On to `O=C1N[C@@H]2CCN(C(=O)N3C[C@H]4CCN(C(=O)/C=C/c5ccc(OC(F)(F)F)cc5)CC[C@H]4C3)C[C@@H]2O1` [Example 8.03], for which 911 nM corresponded to half-maximal inhibition (IC50). As for `O=C(/C=C/c1ccc(OC(F)(F)F)cc1)N1CC[C@@H]2CN(C(=O)N3CCc4[nH]c(=O)ccc4C3)C[C@@H]2CC1` [Example 8.04], the figure is 192 nM. The value for `O=C1N[C@@H]2CCN(C(=O)N3C[C@H]4CCN(C(=O)/C=C/c5ccc(OC(F)(F)F)cc5)CC[C@H]4C3)C[C@H]2O1` [Example 8.05] was 149 nM; that for `O=C(/C=C/c1ccc(OC(F)(F)F)cc1)N1CC[C@@H]2CN(C(=O)N3CCc4ncccc4C3)C[C@@H]2CC1` [Example 8.06] was 192 nM. As for `O=C(/C=C/c1ccc(OC(F)(F)F)cc1)N1CC[C@@H]2CN(C(=O)N3CCn4nc(C(F)(F)F)nc4C3)C[C@@H]2CC1` [Example 8.07], the figure is 1840 nM. Regarding `O=C(/C=C/c1ccc(OC(F)(F)F)cc1)N1CC[C@@H]2CN(C(=O)NCc3cnn[nH]3)C[C@@H]2CC1` [Example 9, (3aR,8aS)—N-((1H-1,2,3-Triazol-5-yl)methyl)-6-((E)-3-(4-(trifluoromethoxy)phenyl)-acryloyl)octahydropyrrolo[3,4-d]azepine-2(1H)-carboxamide], the IC50 (as a rule, the midpoint of a concentration-inhibition curve) came out at 709 nM. As for `O=C(/C=C/c1ccc(OC(F)(F)F)cc1)N1CC[C@@H]2CN(C(=O)NCc3cnn[nH]3)C[C@@H]2CC1` [Example 9.01], the figure is 38 nM; as for `O=C(/C=C/c1ccc(OC(F)(F)F)cc1)N1C[C@@H]2CN(C(=O)NCc3c[nH]nn3)C[C@@H]2C1` [Example 9.02], 1600 nM.

Regarding `O=C(/C=C/c1ccc(OC(F)(F)F)c(F)c1)N1CC[C@@H]2CN(C(=O)NCc3cnn[nH]3)C[C@@H]2CC1` [Example 9.03], the IC50 came to 42 nM.

The compound `O=C(/C=C/c1ccc(OC(F)(F)F)cc1)N1CC[C@@H]2CN(C(=O)NCc3nnc[nH]3)C[C@@H]2CC1` [Example 9.04] returned a 50% inhibitory concentration (IC50) of 713 nM. As for `O=C(/C=C/c1ccc(OC(F)(F)F)cc1)N1CC[C@@H]2CN(C(=O)N3CCc4[nH]cnc4C3)C[C@@H]2CC1` [Example 9.06], the figure is 247 nM. With `CN(Cc1cnn[nH]1)C(=O)N1C[C@H]2CCN(C(=O)/C=C/c3ccc(OC(F)(F)F)cc3)CC[C@H]2C1` [Example 9.07, (3aR,8aS)-N-((1H-1,2,3-triazol-5-yl)methyl)-N-methyl-6-((E)-3-(4-(trifluoromethoxy)phenyl)-acryloyl)octahydro-pyrrolo[3,4-d]azepine-2(1H)-carboxamide], the midpoint of inhibition, the IC50, lay at 74 nM.

`CC(C)(Cc1cccc(Cl)c1)C(=O)N1CC[C@@H]2CN(C(=O)NCc3cnn[nH]3)C[C@@H]2CC1` [Example 9.08] showed an IC50 of 3400 nM.

Compound `O=C(/C=C/c1ccc(OC(F)(F)F)cc1)N1CC[C@@H]2CN(C(=O)NCCc3cnn[nH]3)C[C@@H]2CC1` [Example 9.09, (3aR,8aS)-N-(2-(1H-1,2,3-triazol-5-yl)ethyl)-6-((E)-3-(4-(trifluoromethoxy)-phenyl)acryloyl)octahydropyrrolo[3,4-d]azepine-2(1H)-carboxamide] gave an IC50 of 162 nM. The value for `NS(=O)(=O)C1CCN(C(=O)N2C[C@H]3CN(C(=O)OCc4ccc(OC(F)(F)F)cc4)C[C@@H]3C2)CC1` [Example 9.10] was 7 nM; that for `O=C(OCc1cc(Cl)cc(Cl)c1)N1CC[C@@H]2CN(C(=O)c3ccc4[nH]nnc4c3)C[C@@H]2C1` [Example 10A, (3aR,7aS)-2-(1H-Benzotriazole-5-carbonyl)-octahydro-pyrrolo[3,4-c]pyridine-5-carboxylic acid 3,5-dichloro-benzyl ester] was 36 nM; that for `O=C(OCc1cc(Cl)cc(Cl)c1)N1CC[C@H]2CN(C(=O)c3ccc4[nH]nnc4c3)C[C@H]2C1` [Example 10B, (3aS,7aR)-2-(1H-benzotriazole-5-carbonyl)-octahydro-pyrrolo[3,4-c]pyridine-5-carboxylic acid 3,5-dichloro-benzyl ester] was 118 nM. Consider `O=C(/C=C/c1ccc(OC(F)(F)F)cc1)N1C[C@@H]2CN(C(=O)c3ccc4[nH]nnc4c3)C[C@@H]2C1` [Example 15, (E)-1-((3aR,6aS)-5-(1H-Benzo[d][1,2,3]triazole-5-carbonyl)hexahydropyrrolo[3,4-c]pyrrol-2(1H)-yl)-3-(4-(trifluoromethoxy)phenyl)prop-2-en-1-one], for which it took 26 nM to reach half-maximal inhibition (IC50).

As for `O=C(c1ccc2[nH]nnc2c1)N1C[C@@H]2CN(C(=O)c3cc4cc(Cl)ccc4[nH]3)C[C@@H]2C1` [Example 15.01], the IC50 was found to be 1620 nM. As for `O=C(/C=C/c1cc(F)cc(C(F)(F)F)c1)N1C[C@@H]2CN(C(=O)c3ccc4[nH]nnc4c3)C[C@@H]2C1` [Example 15.02], the figure is 96 nM; as for `O=C(CCc1cc(F)cc(C(F)(F)F)c1)N1C[C@@H]2CN(C(=O)c3ccc4[nH]nnc4c3)C[C@@H]2C1` [Example 15.03], 362 nM; as for `O=C(c1ccc2[nH]nnc2c1)N1C[C@@H]2CN(C(=O)c3cc4ccc(Cl)cc4[nH]3)C[C@@H]2C1` [Example 15.04], 2020 nM. As for `O=C(/C=C/c1ccc(Cl)cc1)N1CC[C@@H]2CN(C(=O)c3ccc4[nH]nnc4c3)C[C@@H]2CC1` [Example 15.06], the figure is 12 nM. As for `Cc1ccc(/C=C/C(=O)N2CC[C@@H]3CN(C(=O)c4ccc5[nH]nnc5c4)C[C@@H]3CC2)cc1` [Example 15.07], the figure is 21 nM. Compound `CN(C)S(=O)(=O)c1ccc(/C=C/C(=O)N2CC[C@@H]3CN(C(=O)c4ccc5[nH]nnc5c4)C[C@@H]3CC2)cc1` [Example 15.08] gave a concentration for half-maximal inhibition (IC50) of 977 nM. On to `COc1ccc(/C=C/C(=O)N2CC[C@@H]3CN(C(=O)c4ccc5[nH]nnc5c4)C[C@@H]3CC2)cc1` [Example 15.09], for which 42 nM corresponded to half-maximal inhibition (IC50).

In the case of `O=C(/C=C/c1ccc(OC(F)(F)F)cc1)N1C[C@H]2CCN(C(=O)c3ccc4[nH]nnc4c3)CC[C@H]2C1` [Example 15.10], the IC50 stood at 34 nM.

Compound `N#Cc1ccc(/C=C/C(=O)N2CC[C@@H]3CN(C(=O)c4ccc5[nH]nnc5c4)C[C@@H]3CC2)cc1` [Example 15.11] returned an IC50 of 13 nM. As for `O=C(/C=C/c1ccc(OC(F)(F)F)cc1)N1C[C@@H]2CN(C(=O)c3ccc4[nH]nnc4c3)C[C@H]2C1` [Example 15.12], the figure is 6 nM; as for `O=C(CCc1ccc(OC(F)(F)F)cc1)N1C[C@@H]2CN(C(=O)c3ccc4[nH]nnc4c3)C[C@@H]2C1` [Example 15.13], 114 nM. The value for `O=C(/C=C/c1ccc(F)cc1)N1CC[C@@H]2CN(C(=O)c3ccc4[nH]nnc4c3)C[C@@H]2CC1` [Example 15.14] was 62 nM; that for `O=C(/C=C/c1ccccc1)N1CC[C@@H]2CN(C(=O)c3ccc4[nH]nnc4c3)C[C@@H]2CC1` [Example 15.15] was 156 nM; that for `O=C(/C=C/c1ccccn1)N1CC[C@@H]2CN(C(=O)c3ccc4[nH]nnc4c3)C[C@@H]2CC1` [Example 15.16] was 5790 nM. The value for `O=C(/C=C/c1cccnc1)N1CC[C@@H]2CN(C(=O)c3ccc4[nH]nnc4c3)C[C@@H]2CC1` [Example 15.17] was 3950 nM; that for `O=C(/C=C/c1cccc(Cl)c1)N1CC[C@@H]2CN(C(=O)c3ccc4[nH]nnc4c3)C[C@@H]2CC1` [Example 15.18] was 20 nM.

`O=C(/C=C/c1ccc(Cl)cc1)N1C[C@H]2CCN(C(=O)c3ccc4[nH]nnc4c3)CC[C@H]2C1` [Example 15.19]: the IC50 is 9 nM. The value for `O=C(/C=C/c1cccc(OC(F)(F)F)c1)N1C[C@H]2CCN(C(=O)c3ccc4[nH]nnc4c3)CC[C@H]2C1` [Example 15.20] was 49 nM. The value for `O=C(/C=C/c1ccc(OC(F)F)cc1)N1CC[C@@H]2CN(C(=O)c3ccc4[nH]nnc4c3)C[C@@H]2CC1` [Example 15.21] was 5 nM; that for `O=C(/C=C/c1cccc(OC(F)(F)F)c1)N1C[C@@H]2CN(C(=O)c3ccc4[nH]nnc4c3)C[C@H]2C1` [Example 15.22] was 53 nM. The value for `N#Cc1ccc(/C=C/C(=O)N2C[C@@H]3CN(C(=O)c4ccc5[nH]nnc5c4)C[C@H]3C2)cc1` [Example 15.23] was 32 nM; that for `O=C(/C=C/c1ccc(OC(F)(F)F)cc1)N1C[C@@H]2CN(C(=O)c3ccc4[nH]nnc4c3)C[C@H]2C1` [Example 15.24] was 10 nM; that for `O=C(/C=C/c1cc(Cl)cc(Cl)c1)N1CC[C@@H]2CN(C(=O)c3ccc4[nH]nnc4c3)C[C@@H]2CC1` [Example 15.27] was 2 nM.

Turning to `O=C(/C=C/c1ccncc1)N1CC[C@@H]2CN(C(=O)c3ccc4[nH]nnc4c3)C[C@@H]2CC1` [Example 15.28], the IC50 is 4420 nM. As for `O=C(/C=C/c1ccc(F)cc1F)N1CC[C@@H]2CN(C(=O)c3ccc4[nH]nnc4c3)C[C@@H]2CC1` [Example 15.29], the figure is 34 nM. In turn, `O=C(/C=C/c1ccc(Cl)cc1Cl)N1CC[C@@H]2CN(C(=O)c3ccc4[nH]nnc4c3)C[C@@H]2CC1` [Example 15.30] yielded an IC50 of 14 nM. Compound `O=C(/C=C/c1ccc(Cl)c(Cl)c1)N1CC[C@@H]2CN(C(=O)c3ccc4[nH]nnc4c3)C[C@@H]2CC1` [Example 15.31] registered an IC50 of 38 nM. With `N#Cc1ccc(/C=C/C(=O)N2CC[C@@H]3CN(C(=O)c4ccc5[nH]nnc5c4)C[C@@H]3CC2)c(F)c1` [Example 15.34], it took 3 nM to reach half-maximal inhibition (IC50). As for `N#Cc1ccc(/C=C/C(=O)N2C[C@@H]3CN(C(=O)c4ccc5[nH]nnc5c4)C[C@H]3C2)c(F)c1` [Example 15.35], the figure is 31 nM.
